Data set [1] relates to UGT enzymes of pooled human jejunum microsomes. In words: Inhibition of 2ME2 glucuronidation (MG1) in pooled human jejunum microsomes. The following applies: jejunum HJ61, 2ME2 50 μM. The class given is biochemical. From the text:
(§1) Compounds were eluted using a binary solvent gradient system where solvent A was dilute phosphoric acid (pH 3) and solvent B was 80:20 acetonitrile-methanol. […] Detection was at 280 nm.

For data set [2], the system named is T1, UGT enzymes of human liver microsomes.
T1 construct: percentage of control metabolism, 7-HFC glucuronidation; percentage of control metabolism, 7-HFC glucuronidation
Kind of data set: Inhibition of 7-HFC glucuronidation in human liver microsomes. The following applies: inhibitor 500 μM. The class given is biochemical. (In general: Microsomes from liver hold many membrane-bound enzymes, among them those of drug oxidation.)

The test system of data set [3] is UGT enzymes of pooled human jejunum microsomes. Kind of data set: Inhibition of zidovudine glucuronidation in pooled human jejunum microsomes. The class given is biochemical.
Method: Increasing the microsomal protein concentration to 1 mg/ml and extending the incubation time to 60 min provided meaningful metabolite levels for inhibition studies.
Data set [4] concerns T2, UGT enzymes of human liver microsomes.
T2 construct: other: liver 062101
In words: Inhibition of 2ME2 glucuronidation (MG1, MG2) in human liver microsomes. The class given is biochemical. The following applies: liver 062101, 2ME2 50 μM.
Source text: as §1

The target in data set [5] is T3, UGT enzymes of human liver microsomes (Homo sapiens, UniProt P16662).
T3 construct: residual metabolism (percentage of control), zidovudine glucuronidation; other: liver lot 062101; residual metabolism (percentage of control), zidovudine glucuronidation; residual metabolism (percentage of control)
T3 sequence (P16662 1-529): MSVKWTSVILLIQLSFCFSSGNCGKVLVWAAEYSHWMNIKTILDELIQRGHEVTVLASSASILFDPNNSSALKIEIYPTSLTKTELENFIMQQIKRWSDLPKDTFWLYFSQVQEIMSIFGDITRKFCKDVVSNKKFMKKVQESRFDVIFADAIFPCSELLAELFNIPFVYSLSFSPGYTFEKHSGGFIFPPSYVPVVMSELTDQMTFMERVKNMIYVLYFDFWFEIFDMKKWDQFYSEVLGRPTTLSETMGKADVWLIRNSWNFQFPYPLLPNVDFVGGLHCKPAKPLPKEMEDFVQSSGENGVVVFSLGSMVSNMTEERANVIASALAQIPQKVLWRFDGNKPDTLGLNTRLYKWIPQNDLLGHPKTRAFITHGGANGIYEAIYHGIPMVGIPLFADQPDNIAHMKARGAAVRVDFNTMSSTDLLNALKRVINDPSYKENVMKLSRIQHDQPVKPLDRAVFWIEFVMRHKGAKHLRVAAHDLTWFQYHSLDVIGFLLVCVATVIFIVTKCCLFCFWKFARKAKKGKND
In words: Inhibition of zidovudine glucuronidation in human liver microsomes. The class given is biochemical. Particulars: liver lot 062101. On the procedure: Compounds were eluted using a binary solvent gradient system where solvent A was dilute phosphoric acid (pH 3) and solvent B was acetonitrile.
Standardized incubations utilized 500 μM zidovudine substrate, 1 mg/ml microsomal protein, 5 mM UDPGA and a 30 min incubation time. […] Int.

Data set [6] concerns the target T4, UGT1A1 (Homo sapiens, UniProt P22309).
T4 sequence (P22309 26-533): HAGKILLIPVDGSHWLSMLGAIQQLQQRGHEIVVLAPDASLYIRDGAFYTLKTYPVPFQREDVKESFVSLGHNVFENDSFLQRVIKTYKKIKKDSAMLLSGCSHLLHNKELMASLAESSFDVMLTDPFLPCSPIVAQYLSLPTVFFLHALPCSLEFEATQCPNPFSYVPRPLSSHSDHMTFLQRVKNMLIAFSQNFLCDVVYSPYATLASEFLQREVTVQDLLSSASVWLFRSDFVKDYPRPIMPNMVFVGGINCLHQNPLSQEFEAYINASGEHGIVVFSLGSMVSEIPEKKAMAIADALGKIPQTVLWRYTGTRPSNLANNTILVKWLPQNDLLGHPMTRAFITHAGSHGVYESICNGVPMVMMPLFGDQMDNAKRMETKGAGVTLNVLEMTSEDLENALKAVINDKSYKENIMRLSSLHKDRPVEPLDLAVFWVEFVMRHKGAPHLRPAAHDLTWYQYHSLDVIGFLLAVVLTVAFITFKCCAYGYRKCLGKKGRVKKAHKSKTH
In words: Inhibition of raloxifene glucuronidation by recombinant UGT1A1 Supersomes. The following applies: for Inhibition of raloxifene glucuronidation, G1, UGT1A1 / Inhibition of raloxifene glucuronidation, G2, UGT1A1: raloxifene 50 μM, 250 μg/ml Supersomes, 1 mM UDPGA, 15 min; for % of control metabolism, raloxifene G1 / % of control metabolism, raloxifene G2: UGT1A1.
Method: Compounds were eluted using a binary solvent gradient system. Solvent A was water brought to pH 8 with NH4OH. Solvent B was methanol. Solvent flow rate was 1 ml/min and the column temperature was maintained at 50° C. Detection was at 280 nm. […] The system was then returned to the initial conditions and equilibrated for 3 min.

Data set [7] concerns UGT enzymes of human liver microsomes. Kind of data set: Inhibition of raloxifene glucuronidation (G1, G2) in human liver microsomes. In kind it is biochemical. The following applies: raloxifene 50 μM; for % of control metabolism (SD, n = 3), raloxifene glucuronide G1 / % of control metabolism (SD, n = 3), raloxifene glucuronide G2: human liver microsomes 250 μg/ml, 15 min. The text has this:
Compounds were eluted using a binary solvent gradient system. […] Solvent B was methanol. […] Detection was at 280 nm.

For data set [8] the following is noted: humans; cited from earlier work.
The mark [9] stands for this setting: inhibitor column headed only "μM" (between 25 μM and 5 μM).

Data on three compounds can be found in patent publication US20030215462A1, “Use of UGT inhibitors to increase bioavailability” (priority 2001, published 2003).

Each structure is given as a SMILES string. Values joined by “and” are separate entries in the source; they are usually repeats but may differ in a detail not shown here. Identical values can stand only once.

As for `C#C[C@]1(O)CC[C@H]2[C@@H]3CCc4cc(O)ccc4[C@H]3CC[C@@]21C` [17-α-Ethinylestradiol, 17-α-ethinylestradiol, reference compound], the “residual metabolism (% of control), 2ME2 MG1” value in data set [1] (inhibitor 50 μM) is recorded as 109 (5) %; in data set [1] (inhibitor 100 μM), 99 (2) %; in data set [4] (inhibitor 25 μM) it was 74 (1) %; in data set [4] (inhibitor 50 μM) it was 64 (2) %; in data set [4] (inhibitor 100 μM) it was 48 (0) %. Further, in data set [2], the “percentage of control metabolism, 7-HFC glucuronidation” value is given as 72 (1) %. Further, in data set [2] (7-HFC 50 μM, human liver microsomes 100 μg/ml, 15 min), the “% of control metabolism (SD, n = 3), 7-HFC glucuronidation” value is listed as 72 (1) %. The “residual metabolism (percentage of control), zidovudine” value in data set [3] (inhibitor 100 μM) is reported as 30 (1) %. Besides, the “residual metabolism (% of control), 2ME2 MG2” value in data set [4] (inhibitor 25 μM) was 62 (1) %; in data set [4] (inhibitor 50 μM) it was 41 (3) %; in data set [4] (inhibitor 100 μM), 4 (0) %. Also, the “residual metabolism (percentage of control), zidovudine glucuronidation” value in data set [5] (inhibitor 50 μM) is 54 (2) %; in data set [5] (inhibitor 100 μM) it was 40 (2) %; in data set [5] (inhibitor 200 μM) it was 24 (1) %; in data set [5] (inhibitor 500 μM), 13 (1) % and 10 (1) %. Further, the “Inhibition of raloxifene glucuronidation, G1, UGT1A1” value in data set [6] (inhibitor 25 μM) is 53 (0); in data set [6] (inhibitor 50 μM), 33 (1); in data set [6] (setting [9]), 81 (0). Besides, the “Inhibition of raloxifene glucuronidation, G2, UGT1A1” value in data set [6] (inhibitor 25 μM) was 72 (1); in data set [6] (inhibitor 50 μM) it was 58 (3); in data set [6] (setting [9]) it was 91 (1). In addition, the “% of control metabolism, raloxifene G1” value is recorded as 53 (0) % in data set [6] (inhibitor 25 μM); 33 (1) % in data set [6] (inhibitor 50 μM); 66 (3) % in data set [7] (inhibitor 25 μM); 42 (2) % in data set [7] (inhibitor 50 μM); 31 (2) % in data set [7] (inhibitor 100 μM). Also, the “% of control metabolism, raloxifene G2” value in data set [6] (inhibitor 25 μM) is reported as 72 (1) %; in data set [6] (inhibitor 50 μM) it was 58 (3) %; in data set [7] (inhibitor 25 μM) it was 80 (3) %; in data set [7] (inhibitor 50 μM), 60 (2) %; in data set [7] (inhibitor 100 μM), 56 (3) %. The “% of control metabolism (SD, n = 3), raloxifene glucuronide G1” value in data set [7] (inhibitor 25 μM) is listed as 66 (3) %; in data set [7] (inhibitor 50 μM), 42 (2) %; in data set [7] (inhibitor 100 μM), 31 (2) %; in data set [7] (inhibitor 500 μM) it was 2 (0) %. Also, the “% of control metabolism (SD, n = 3), raloxifene glucuronide G2” value in data set [7] (inhibitor 25 μM) was 80 (3) %; in data set [7] (inhibitor 50 μM), 60 (2) %; in data set [7] (inhibitor 100 μM) it was 56 (3) %; in data set [7] (inhibitor 500 μM), 6 (0) %.

Turning to `CC1CCC(C(C)C)C(O)C1` (centres unmarked) [Menthol], the “residual metabolism (% of control), 2ME2 MG1” value is given as 98 (4) % in data set [1] (inhibitor 50 μM), 125 (7) % in data set [1] (inhibitor 100 μM), 96 (2) % in data set [4] (inhibitor 50 μM) and 92 (2) % in data set [4] (inhibitor 100 μM). Also, the “residual metabolism (percentage of control), zidovudine” value in data set [3] (inhibitor 500 μM) is reported as 32 (3) %. Further, the “residual metabolism (% of control), 2ME2 MG2” value in data set [4] (inhibitor 50 μM) is 86 (1) %; in data set [4] (inhibitor 100 μM) it was 74 (3) %. Moreover, the “residual metabolism (percentage of control), zidovudine glucuronidation” value is 63 (6) % in data set [5] (inhibitor 200 μM); 43 (1) % and 37 (4) % in data set [5] (inhibitor 500 μM); 25 (2) % in data set [5] (inhibitor 1000 μM).

On to `C[C@H](CCc1ccccc1)NC[C@H](O)c1ccc(O)c(C(N)=O)c1` [dilevalol], for which the absolute oral bioavailability in data set [8] was 11-29%.
